Reference: US20210395226A1, “SUBSTITUTED ARYL COMPOUND AND PREPARATION METHOD THEREFOR AND USE THEREOF” (SICHUAN KELUN-BIOTECH BIOPHARMACEUTICAL CO., LTD., priority 2018, published 2021)

Columns and labels:
[1] = target: T1, Adenosine A1 receptor (human) membrane (Homo sapiens, UniProt P30542); assay: Determination of competitive inhibition constant (Ki) for adenosine A1 receptor, [3H]-DPCPX radioligand; format: binding; settings: 1.0 nM [3H]-DPCPX
T1 construct: purchased PerkinElmer ES-010-M400UA
T1 sequence (P30542 1-326): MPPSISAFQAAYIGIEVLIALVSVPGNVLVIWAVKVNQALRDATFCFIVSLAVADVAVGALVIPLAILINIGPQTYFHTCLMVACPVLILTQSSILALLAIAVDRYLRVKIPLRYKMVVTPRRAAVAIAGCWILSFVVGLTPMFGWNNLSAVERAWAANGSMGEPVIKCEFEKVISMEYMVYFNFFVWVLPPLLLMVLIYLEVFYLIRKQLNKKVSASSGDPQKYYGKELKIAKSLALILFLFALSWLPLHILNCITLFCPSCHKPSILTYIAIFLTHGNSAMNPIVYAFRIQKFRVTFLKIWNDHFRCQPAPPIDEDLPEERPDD
Procedure: (§1) Test Example 1: Determination of Competitive Inhibition Constant (Ki) for Adenosine A1 and A2a Receptors
[^3H]-DPCPX (PerkinElmer, NET974250UC),
Adenosine A1 receptor (human) membrane (PerkinElmer, ES-010-M400UA),
assay buffer for A1 (25 mM HEPES, 5 mM MgCl2, 1 mM CaCl2, 100 mM NaCl, pH7.4), used to dilute adenosine A1 receptor (human) membrane and [^3H]-DPCPX;
wash buffer for A1 (25 mM HEPES, 5 mM MgCl2, 1 mM CaCl2, 100 mM NaCl, pH7.4);
(§2) Adenosine A1 receptor membrane was diluted to 0.025 μg/μl with assay buffer for A1, and Adenosine A2a receptor membrane was diluted to 0.05 μg/μl with assay buffer for A2a, so as to obtain Adenosine A1 receptor membrane dilution and Adenosine A2a receptor membrane dilution.
(§3) The compound to be tested and CGS-15943 were diluted with DMSO, and 1 W of the compound to be tested, high value control (0.5% DMSO), low value control (1000 nM CGS-15943) were added to a 96-well plate, and 100 W of Adenosine A1 receptor membrane dilution (containing 2.5 μg of membrane) was added to each well of the 96-well plate to obtain A1 detection plate; following the same steps, 100 W of Adenosine A2a receptor membrane dilution (containing 5.0 μg membrane) was added to each well of the 96-well plate to obtain A2a detection plate.
(§4) To the A1 detection plate, 100 μl of radioisotope-labeled ligand [^3H]-DPCPX (diluted with assay buffer for A1, working concentration of which was 1.0 nM) was added; and to the A2a detection plate, 100 μl of radioisotope-labeled ligand [^3H]-CGS-21680 (diluted with assay buffer for A2a, working concentration of which was 6.0 nM) was added. The A1 and A2a detection plates were sealed with tape, and incubated at room temperature for 1 h and 2 h, respectively.
(§5) Unifilter-96 GF/C filter plates were prepared, 50 μl of 0.3% PEI was added to each well of the Unifilter-96 GF/C filter plates, and the resulting filter plates were incubated at room temperature for not less than 0.5 h.
(§6) After the incubation was completed, the reaction solution was transferred from the A1 detection plate and the A2a detection plate to two Unifilter-96 GF/C filter plates, and washed with pre-cooled wash buffer for A1 and wash buffer for A2a, and then the filter plates were dried, sealed at bottom, then 50 W of Microscint 20 fluid scintillation cocktail was added, and then the filter plates were sealed at top, and counted by MicroBeta2 Reader.
(§7) Inhibition rate %=100−(signal value of test well−signal average value of low value control)/(signal average value of high value control−signal average value of low value control)*100.
(§8) EXCEL XLfit was used to fit IC50.
(§9) The calculation formula for competitive inhibition constant (Ki) was: Ki=IC50/(1+concentration of isotope-labeled ligand/Kd), wherein Kd was the dissociation constant of the isotope-labeled ligand.

[2] = target: T2, Adenosine A2a receptor (human) membrane (Homo sapiens, UniProt P29274); assay: Determination of competitive inhibition constant (Ki) for adenosine A2a receptor, [3H]-CGS-21680 radioligand; format: binding; settings: for Ki: human A2a receptor membrane, 6.0 nM [3H]-CGS-21680, read-out: Ki(A2a); for Ki(A1)/Ki(A2a): selectivity ratio A1 over A2a
T2 construct: purchased PerkinElmer RBHA2AM400UA
T2 sequence (P29274 whole entry): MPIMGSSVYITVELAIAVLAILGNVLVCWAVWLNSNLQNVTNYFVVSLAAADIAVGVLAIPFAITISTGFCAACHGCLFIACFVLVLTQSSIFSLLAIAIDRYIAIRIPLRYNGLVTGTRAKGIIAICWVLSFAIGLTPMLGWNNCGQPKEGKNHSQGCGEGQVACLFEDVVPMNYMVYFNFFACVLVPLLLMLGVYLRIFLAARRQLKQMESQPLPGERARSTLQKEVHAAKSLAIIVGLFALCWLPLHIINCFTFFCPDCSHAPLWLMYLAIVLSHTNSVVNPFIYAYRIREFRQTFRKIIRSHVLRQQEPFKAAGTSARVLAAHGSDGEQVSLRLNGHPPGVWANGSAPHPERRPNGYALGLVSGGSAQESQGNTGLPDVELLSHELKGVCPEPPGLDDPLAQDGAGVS
Procedure: as §1
Adenosine A2a receptor (human) membrane (PerkinElmer, RBHA2AM400UA),
assay buffer for A2a (50 mM Tris-HCl, 10 mM MgCl2, 1 mM EDTA, pH7.4), used to dilute adenosine A2a receptor (human) membrane (human origin) and [^3H]-CGS-21680; and
wash buffer for A2a (50 mM Tris-HCl, 154 mM NaCl, pH7.4).
as §2, §3, §4, §5, §6, §7, §8, §9

ADORA2a/CHOK1 cells = target: T3, ADORA2a/CHOK1 cells (Homo sapiens, UniProt P29274); assay: Inhibitory activity for ADORA2a/CHOK1 cells (cAMP detection, adenosine as agonist); format: cell-based; settings: for inhibition at 0.1 µM: CHO-K1, 100 nM compound, read-out: Inhibition rate at 100 nM; for inhibition at 1 µM: CHO-K1, 1000 nM compound, read-out: Inhibition rate at 1000 nM
T3 construct: host or cells: CHO-K1
T3 sequence (P29274 whole entry): as above
Procedure: Test Example 2: Study on Inhibitory Activity for ADORA2a/CHOK1 Cells
ADORA2a/CHOK1 cells (Cobai, CBP71017).
FBS was added to Ham's F-12 medium to a concentration of 10% (v/v), Zeocin was added to a final concentration of 200 μg/mL, and Hygromycin B was added to a final concentration of 100 μg/mL, and the resulting mixture was stored at 4° C. for later use.
A certain amount of adenosine was precisely weighed and placed into a 1.5 mL EP tube, then a certain volume of cell culture medium was added, the resulting mixture was incubated at 37° C. for dissolution, thereby a 10 mM stock solution was prepared. The stock solution was diluted with cell culture medium at 1:1000 to get 10 μM adenosine solution.
The compound to be tested was dissolved in DMSO to form a 10 mM stock solution, and the stock solution was stored in a refrigerator at 4° C. for later use. The stock solution was diluted with the 10 μM of adenosine solution to 2000 nM or 200 nM for later test.
(1) CHO-K1 cells stably expressing ADORA2A receptor were cultured in a 37° C., 5% CO2 cell incubator. When the cell confluence reached about 80%, the cells were digested by trypsin, dispersed and counted; (2) the cell concentration was adjusted to 6×10^5 cells/mL according to the counting results; (3) the cells was inoculated into a white 384-well cell culture plate at 5 μL per well (about 3000 cells/well).
All groups were provided with multiple wells, the adenosine-free cell culture medium was added to the wells of the Blank group (5 μL/well); 10 μM adenosine solution was added to the wells of the Agonist group (5 μL/well); the diluted compound was added to the wells of the test compound group (5 μL/well). After the addition of the compound was completed, the 384-well plate was centrifuged at 2500 rpm for 30 seconds to fully mix the compound and the medium, then placed in a 25° C. incubator and incubated for 30 min.
A certain volume of cAMP-d2 was taken, and diluted by adding Lysis & Detection Buffer at the ratio of 1:5 to prepare Solution A.
A certain volume of cAMP-Cryptate was taken, and diluted by adding Lysis & Detection Buffer at the ratio of 1:5 to prepare Solution B.
(2) After 30 min of incubation in step 2 was completed, addition of detection solution was carried out. The 384-well plate was taken out, 5 μL of Solution A was added to each well, and then 5 μL of Solution B was added to each well, then the 384-well plate was covered with sealing membrane, centrifuged at 2500 rpm for 30 s (to fully mix the detection solution and medium), and incubated in a thermostat at 25° C. for 1 h.
After the incubation, the 384-well plate was taken out, and detected by PHERA Star FS to read data, detection wavelength: 620 nm/665 nm.
inhibition rate %=(1−(RCompound−RBlank)/(RAgonist−RBlank))*100%
wherein, RCompound represented the R Value of the test compound group, RAgonist represented the R value of the Agonist group, and RBlank represented the R value of the Blank group.

SMILES: Cc1ncnc2ccc(-c3c(C#N)cc(NC(=O)N4CCOCC4)nc3-c3ccc(F)cc3)cc12 [Compound 43, N-(4-cyano-6-(4-fluorophenyl)-5-(4-methylquinazolin-6-yl)pyridin-2-yl) morpholine-4-carboxamide]
- Ki [1]: 134 nM
- Ki [2]: 1.36 nM
- Ki(A1)/Ki(A2a) [2]: 98.3
- inhibition at 0.1 µM (ADORA2a/CHOK1 cells): 59.1%
- inhibition at 1 µM (ADORA2a/CHOK1 cells): 100%

SMILES: Cc1ncnc2ccc(-c3c(-c4ccc(F)cc4)nc(NC(=O)N4CCOCC4)nc3C3CC3)cc12 [Compound 44, N-(4-cyclopropyl-6-(4-fluorophenyl)-5-(4-methylquinazolin-6-yl)pyrimidin-2-yl)morpholine-4-carboxamide]
- Ki [1]: 931 nM
- Ki [2]: 14.5 nM
- Ki(A1)/Ki(A2a) [2]: 64.2
- inhibition at 0.1 µM (ADORA2a/CHOK1 cells): 64.8%
- inhibition at 1 µM (ADORA2a/CHOK1 cells): 104%
